Like-named read-outs stand apart in the source and are kept apart here. Marks after values point to notes of the source that are not given here.
Key:
HCT-116 = experiment: Cell survival assay (SRB), HCT-116; type: cell-based; conditions: Homo sapiens
Protocol: (§1) 2.2. Cell Survival Assay: Standard Pharmacological Test Procedure. […] Compounds are incubated with cells for 3 days.

KB-8.5 tumor = experiment: Growth of tumors in nude mice, KB-8-5 xenograft; type: in vivo; conditions: days 1,5,9
Excerpt: (§2) 2.4. Growth of Tumors in Nude Mice.

MCF7 = experiment: Cell survival assay (SRB), MCF7; type: cell-based; conditions: Homo sapiens, MCF7, 72 h
Protocol: as §1

[1] = Mitotic arrest and apoptosis; type: cell-based; conditions: at 24 hr; followed by apoptosis (48 hr)
Protocol: d) induces mitotic arrest (3-10 nM at 24 hr) followed by apoptosis (48 hr),

MAP-associated tubulin = experiment: Polymerization of MAP-associated tubulin, cell-free spectrophotometric assay; type: biochemical
MDA-MB-435 = experiment: Cell survival assay (SRB), MDA-MB-435; type: cell-based; conditions: Homo sapiens, 72 h; MDA-MB-435, breast; 3 days, SRB staining
Protocol: as §1

A375 = experiment: Cell survival assay (SRB), A375; type: cell-based; conditions: Homo sapiens, A-375, 72 h
Protocol: as §1

DU145 = experiment: Cell survival assay (SRB), DU145; type: cell-based; conditions: Homo sapiens, DU-145, 72 h; DU145, prostate; 3 days, SRB staining
Protocol: as §1

cellular microtubules = experiment: Cellular microtubules by immunofluorescence microscopy; type: cell-based
SKBR3 = experiment: Cell survival assay (SRB), SKBR3; type: cell-based; conditions: Homo sapiens, SK-BR-3, 72 h; SKBR3, breast; 3 days, SRB staining
Protocol: as §1

CX-1 = experiment: Cell survival assay (SRB), CX-1; type: cell-based; conditions: Homo sapiens, 72 h; CX-1, colon; 3 days, SRB staining
Protocol: as §1

DLD-1 tumor = experiment: Growth of tumors in nude mice, DLD-1 xenograft; type: in vivo; conditions: days 1,5,9
Excerpt: as §2

NCI-H838 = experiment: Cell survival assay (SRB), NCI-H838; type: cell-based; conditions: Homo sapiens, 72 h; NCI-H838, NSCLC; 3 days, SRB staining
Protocol: as §1

HCT-15 tumor = experiment: Growth of tumors in nude mice, HCT-15 xenograft; type: in vivo; conditions: paclitaxel 60 mg/kg IV, days 1,5,9
Excerpt: as §2

## CN[C@H](C(=O)N[C@H](C(=O)N(C)[C@H](/C=C(\C)C(=O)O)C(C)C)C(C)(C)C)C(C)(C)c1ccccc1 [Example 129, N,β,β-trimethyl-L-phenylalanyl-N^1-[(1S,2E)-3-carboxy-1-isopropylbut-2-enyl]-N^1,3-dimethyl-L-valinamide]
HCT-116; HCT-116, 72 h
  IC50: 0.7 ± 0.2 nM
KB-8.5 tumor; Example 129 1.6 mg/kg IV
  % T/C on day 6: 25** %
  % T/C on day 14: 16%
  % T/C on day 21: 47** %
MCF7
  IC50: 7.3 ± 2.3 nM
[1]
  concentration that induces mitotic arrest: 3 to 10 nM
MAP-associated tubulin
  polymerization of MAP-associated tubulin: inhibitor of polymerization
MDA-MB-435
  IC50: 0.5 nM
A375
  IC50: 1.1 ± 0.8 nM
DU145
  IC50: 2 nM
Cellular microtubules
  effect on cellular microtubules: depolymerizes cellular microtubules
SKBR3
  IC50: 2.3 nM
CX-1
  IC50: 2.3 nM
DLD-1 tumor; Example 129 1.6 mg/kg IV
  % T/C on day 7: 22** %
  % T/C on day 14: 20** %
  % T/C on day 21: 44%

## CC(=O)O[C@H]1C(=O)[C@@]2(C)[C@H]([C@H](OC(=O)c3ccccc3)[C@]3(O)C[C@H](OC(=O)[C@H](O)[C@@H](NC(=O)c4ccccc4)c4ccccc4)C(C)=C1C3(C)C)[C@]1(OC(C)=O)CO[C@@H]1C[C@@H]2O [paclitaxel, reference compound]
HCT-116; 72 h, HCT-116, colon, 3 days, SRB staining, read-out: IC50
  IC50: 4.5 nM
KB-8.5 tumor; paclitaxel 60 mg/kg IV
  % T/C on day 6: 63** %
  % T/C on day 14: 86%
NCI-H838
  IC50: 6.3 ± 0.6 nM
HCT-15 tumor
  % T/C on day 9: 114%
  % T/C on day 13: 106%
  % T/C on day 17: 123%
  % T/C on day 21: 110%
A375; A375, melanoma, 3 days, SRB staining, read-out: IC50
  IC50: 14.1 ± 7.3 nM
DLD-1 tumor; paclitaxel 60 mg/kg IV
  % T/C on day 7: 71%
  % T/C on day 14: 73%

— US20040121965A1, “Method of treating resistant tumors” (Wyeth Holdings Corporation, priority 2002, published 2004)
